Laboratory results reported in patent US10743535B2, “Insecticide for flight-capable pests” (H&K SOLUTIONS LLC, priority 2017, dated 2020).

How the values were obtained:
[1] = system: bees; settings: perhaps contributing to the collapse of bee colonies; cited from earlier work
[2] = system: lanternfly; settings: in vivo; cited from earlier work
[3] = system: spotted lanternflies (lycorma delicatula); experiment: formulations sprayed on lantern flies to test lethality; format: in vivo; settings: applied by spraying the top of the insect; lethal = the insect dies within 10 minutes
Method: The concentration of menthol in the insecticide should be sufficient such that it is lethal to the insect. As used herein, the term “lethal” means that, once applied by spraying the top of the insect, the insect dies within 10 minutes. Those of skill in the art can determine a lethal dose of menthol without undue experimentation. Although higher doses tend to result in a shorter kill time, given the expense of menthol, it is generally preferred to minimize its concentration to achieve a sufficient kill time, i.e., less than 10 minutes and preferably less than 2 minutes, and more preferably less than 1 minute.
The following nonlimiting examples illustrate the effectiveness of the insecticide of the present invention. […] In all cases, the formulations were applied to lantern flies to test the effectiveness of the particular formulation, and, in all cases, the formulations were lethal as defined in this application.
Again, in all cases, the formulations were applied to lantern flies to test the effectiveness of the particular formulation, and, in all cases, the formulation were lethal as defined in this application.

CN/C(=N/CC1CCOC1)N[N+](=O)[O-] (centres unmarked) [Dinotefuran]
effect on bees [1]: detrimental | shown to be effective in exterminating the lanternfly [2]: effective | time to kill the lanternfly [2]: hours

CC1(C)C(C=C(Cl)Cl)C1C(=O)OCc1cccc(Oc2ccccc2)c1 (centres unmarked) [Permethrin]
shown to be effective in exterminating the lanternfly [2]: effective

CC1CCC(C(C)C)C(O)C1 (centres unmarked) [menthol]
lethal to lanternfly [3]: lethal
